Patent US6323014A, “Method and composition for enhancing the activity of an enzyme” (Unilever Home & Personal Care division of Conopco, Inc., priority 1999, dated 2001)

Tests used:
[1] = system: phenol oxidizing enzyme from Acremonium murorum; test: Bleaching of tomato stains on cotton swatches, phenol oxidizing enzyme/enhancer system, detergent formulation wash solution; type: biochemical; settings: enhancer 250 μM, detergent formulation 2 g/l, 30 minutes, 30° C.; for ΔE, stain bleach performance, Oily Tomato Stain, With enzyme / ΔE, stain bleach performance, Tomato Extract, With enzyme: enzyme 20 mg/l
Method: (§1) The potential of the various enhancer to boost the bleach performance of phenol oxidizing enzyme was assessed by washing cotton swatches soiled with tomato stains. Two different bleach monitors were used:
(§2) Tomato extract material was prepared by acetone extraction of the chromophores from concentrated tomato paste. For the preparation of the stains, the colored acetone solution was applied to cotton swatches.
(§3) Oily tomato stains were prepared by applying heated concentrated tomato paste, to which 5 wt % Soya oil was added, to cotton swatches.
(§4) The pH of the wash solution was set to pH 9. Purified phenol oxidizing enzyme from Acremonium murorum was added to the wash solution at 20 mg/l. The enzyme from Acremonium murorum is decribed in WO-A-00/05349 (Unilever). The enhancers were all dosed at 250 μM. The wash solution was 50 mM Tris buffer.
(§5) The swatches were washed during 30 minutes, at 30° C. After the wash, the swatches were tumble-dried and the reflectance spectra were measured using a Minolta spectrometer. The color differences between the swatch before and after the wash data were expressed in the CIELAB L*a*b* color space. In this color space, L* indicates lightness and a* and b* are the chromaticity coordinates. Color differences between two swatches are expressed as ΔE, which is calculated from the following equation: […]
Example 1 was repeated, using this time as wash solution a detergent formulation having the composition shown below, at a concentration of 2 g/l. The amounts are given in weight %.

[2] = system: phenol oxidizing enzyme from Acremonium murorum; test: Bleaching of tomato stains on cotton swatches, phenol oxidizing enzyme/enhancer system, 50 mM Tris buffer wash solution; type: biochemical; settings: enhancer 250 μM, 50 mM Tris buffer pH 9, 30 minutes, 30° C.; for ΔE, stain bleach performance, Oily Tomato Stain, With enzyme / ΔE, stain bleach performance, Tomato Extract, With enzyme: enzyme 20 mg/l
Method: as §1, §2, §3, §4, §5

Compound | ΔE, stain bleach performance, Oily Tomato Stain, With enzyme [1] | ΔE, stain bleach performance, Oily Tomato Stain, Without enzyme [1] | ΔE, stain bleach performance, Tomato Extract, With enzyme [1] | ΔE, stain bleach performance, Tomato Extract, Without enzyme [1] | ΔE, stain bleach performance, Oily Tomato Stain, With enzyme [2] | ΔE, stain bleach performance, Oily Tomato Stain, Without enzyme [2] | ΔE, stain bleach performance, Tomato Extract, With enzyme [2] | ΔE, stain bleach performance, Tomato Extract, Without enzyme [2]
Cc1ccc(S(=O)(=O)Nc2cc(Br)c(O)c(Br)c2Br)cc1 [3Brphenol3MeBSA, N-(2,3,5-tribromo-4-hydroxyphenyl) -4-Methyl benzenesulfonamide] | 11.71 | 6.87 | 27.57 | 12.86 | 6.21 | 1.56 | 19.59 | 10.86
O=S(=O)(Nc1cc(Br)c(O)c(Br)c1Br)c1ccccc1 [3BrphenolBSA, N-(2,3,5-tribromo-4-hydroxyphenyl)-benzenesulfonamide] | 10.95 | 6.89 | 26.87 | 12.99 | 5.62 | 4.18 | 19.97 | 10.33
